Our source for the inhibition values is ChEMBL document CHEMBL1135703, “Synthesis and biological activity of a novel class of small molecular weight peptidomimetic competitive inhibitors of protein tyrosine phosphatase 1B” (2002).

For experiment [1], the target named is T1, Tyrosine-protein phosphatase non-receptor type 1 (Homo sapiens) (UniProt P18031).
T1 sequence (whole entry): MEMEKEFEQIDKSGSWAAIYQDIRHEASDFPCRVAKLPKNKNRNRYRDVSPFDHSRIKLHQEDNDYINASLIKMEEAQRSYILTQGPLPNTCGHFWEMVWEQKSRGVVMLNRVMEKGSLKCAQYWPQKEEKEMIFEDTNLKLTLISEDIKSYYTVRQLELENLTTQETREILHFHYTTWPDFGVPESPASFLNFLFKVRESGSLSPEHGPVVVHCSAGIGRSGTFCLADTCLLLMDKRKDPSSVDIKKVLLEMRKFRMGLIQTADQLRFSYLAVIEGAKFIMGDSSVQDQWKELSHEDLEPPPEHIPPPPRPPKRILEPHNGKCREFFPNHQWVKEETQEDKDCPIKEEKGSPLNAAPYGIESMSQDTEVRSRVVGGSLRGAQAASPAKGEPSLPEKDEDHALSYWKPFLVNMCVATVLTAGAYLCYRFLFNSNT
In words: Percent inhibition of Protein Tyrosine Phosphatase 1B (PTP 1B) assayed at 100 uM.

Experiment [2] has as its target Receptor-type tyrosine-protein phosphatase F (Homo sapiens) (UniProt P10586). Description: Percent inhibition of Protein-tyrosine phosphatase Lar assayed at 100 uM.
Experiment [3] has as its target T2, Tyrosine-protein phosphatase non-receptor type 1 (Rattus norvegicus) (UniProt P20417).
T2 sequence (whole entry): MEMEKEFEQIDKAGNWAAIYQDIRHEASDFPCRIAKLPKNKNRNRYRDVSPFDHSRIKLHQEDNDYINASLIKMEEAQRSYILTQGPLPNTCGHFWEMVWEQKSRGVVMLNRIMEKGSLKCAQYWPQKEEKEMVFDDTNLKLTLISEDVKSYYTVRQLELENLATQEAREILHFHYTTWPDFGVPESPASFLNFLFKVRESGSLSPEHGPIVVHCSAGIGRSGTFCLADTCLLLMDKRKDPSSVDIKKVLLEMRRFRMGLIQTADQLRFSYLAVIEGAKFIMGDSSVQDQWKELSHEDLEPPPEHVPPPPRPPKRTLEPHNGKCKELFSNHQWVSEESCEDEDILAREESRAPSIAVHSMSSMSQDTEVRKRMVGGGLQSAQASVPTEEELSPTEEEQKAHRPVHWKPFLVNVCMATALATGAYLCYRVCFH
Description: Percent inhibition of Protein-tyrosine phosphatase 1 (PTP) assayed at 100 uM.

The target in experiment [4] is T3, Tyrosine-protein phosphatase non-receptor type 11 (Mus musculus) (UniProt P35235).
T3 sequence (whole entry): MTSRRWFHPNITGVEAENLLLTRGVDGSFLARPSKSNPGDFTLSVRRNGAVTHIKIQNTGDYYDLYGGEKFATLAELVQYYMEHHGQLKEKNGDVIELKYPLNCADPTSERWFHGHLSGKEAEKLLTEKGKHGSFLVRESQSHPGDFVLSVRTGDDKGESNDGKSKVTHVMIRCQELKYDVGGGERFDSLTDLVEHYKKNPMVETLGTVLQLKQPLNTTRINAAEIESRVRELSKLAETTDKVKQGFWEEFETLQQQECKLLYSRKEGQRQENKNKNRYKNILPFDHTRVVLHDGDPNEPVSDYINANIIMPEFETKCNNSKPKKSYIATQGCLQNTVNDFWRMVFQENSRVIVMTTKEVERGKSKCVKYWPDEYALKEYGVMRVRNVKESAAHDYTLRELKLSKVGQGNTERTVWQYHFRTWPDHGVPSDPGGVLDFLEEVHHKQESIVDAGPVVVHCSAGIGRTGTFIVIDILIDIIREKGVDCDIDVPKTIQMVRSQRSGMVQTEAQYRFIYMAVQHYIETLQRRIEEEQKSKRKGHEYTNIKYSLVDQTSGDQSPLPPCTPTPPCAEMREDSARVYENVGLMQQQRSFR
In words: Percent inhibition of Tyrosine phosphatase SHP2 SH2 domain containing PTP involved in insulin uM. To be noted: concentration not given here.

Receptor-type tyrosine-protein phosphatase F (Homo sapiens), sequence (P10586 whole entry): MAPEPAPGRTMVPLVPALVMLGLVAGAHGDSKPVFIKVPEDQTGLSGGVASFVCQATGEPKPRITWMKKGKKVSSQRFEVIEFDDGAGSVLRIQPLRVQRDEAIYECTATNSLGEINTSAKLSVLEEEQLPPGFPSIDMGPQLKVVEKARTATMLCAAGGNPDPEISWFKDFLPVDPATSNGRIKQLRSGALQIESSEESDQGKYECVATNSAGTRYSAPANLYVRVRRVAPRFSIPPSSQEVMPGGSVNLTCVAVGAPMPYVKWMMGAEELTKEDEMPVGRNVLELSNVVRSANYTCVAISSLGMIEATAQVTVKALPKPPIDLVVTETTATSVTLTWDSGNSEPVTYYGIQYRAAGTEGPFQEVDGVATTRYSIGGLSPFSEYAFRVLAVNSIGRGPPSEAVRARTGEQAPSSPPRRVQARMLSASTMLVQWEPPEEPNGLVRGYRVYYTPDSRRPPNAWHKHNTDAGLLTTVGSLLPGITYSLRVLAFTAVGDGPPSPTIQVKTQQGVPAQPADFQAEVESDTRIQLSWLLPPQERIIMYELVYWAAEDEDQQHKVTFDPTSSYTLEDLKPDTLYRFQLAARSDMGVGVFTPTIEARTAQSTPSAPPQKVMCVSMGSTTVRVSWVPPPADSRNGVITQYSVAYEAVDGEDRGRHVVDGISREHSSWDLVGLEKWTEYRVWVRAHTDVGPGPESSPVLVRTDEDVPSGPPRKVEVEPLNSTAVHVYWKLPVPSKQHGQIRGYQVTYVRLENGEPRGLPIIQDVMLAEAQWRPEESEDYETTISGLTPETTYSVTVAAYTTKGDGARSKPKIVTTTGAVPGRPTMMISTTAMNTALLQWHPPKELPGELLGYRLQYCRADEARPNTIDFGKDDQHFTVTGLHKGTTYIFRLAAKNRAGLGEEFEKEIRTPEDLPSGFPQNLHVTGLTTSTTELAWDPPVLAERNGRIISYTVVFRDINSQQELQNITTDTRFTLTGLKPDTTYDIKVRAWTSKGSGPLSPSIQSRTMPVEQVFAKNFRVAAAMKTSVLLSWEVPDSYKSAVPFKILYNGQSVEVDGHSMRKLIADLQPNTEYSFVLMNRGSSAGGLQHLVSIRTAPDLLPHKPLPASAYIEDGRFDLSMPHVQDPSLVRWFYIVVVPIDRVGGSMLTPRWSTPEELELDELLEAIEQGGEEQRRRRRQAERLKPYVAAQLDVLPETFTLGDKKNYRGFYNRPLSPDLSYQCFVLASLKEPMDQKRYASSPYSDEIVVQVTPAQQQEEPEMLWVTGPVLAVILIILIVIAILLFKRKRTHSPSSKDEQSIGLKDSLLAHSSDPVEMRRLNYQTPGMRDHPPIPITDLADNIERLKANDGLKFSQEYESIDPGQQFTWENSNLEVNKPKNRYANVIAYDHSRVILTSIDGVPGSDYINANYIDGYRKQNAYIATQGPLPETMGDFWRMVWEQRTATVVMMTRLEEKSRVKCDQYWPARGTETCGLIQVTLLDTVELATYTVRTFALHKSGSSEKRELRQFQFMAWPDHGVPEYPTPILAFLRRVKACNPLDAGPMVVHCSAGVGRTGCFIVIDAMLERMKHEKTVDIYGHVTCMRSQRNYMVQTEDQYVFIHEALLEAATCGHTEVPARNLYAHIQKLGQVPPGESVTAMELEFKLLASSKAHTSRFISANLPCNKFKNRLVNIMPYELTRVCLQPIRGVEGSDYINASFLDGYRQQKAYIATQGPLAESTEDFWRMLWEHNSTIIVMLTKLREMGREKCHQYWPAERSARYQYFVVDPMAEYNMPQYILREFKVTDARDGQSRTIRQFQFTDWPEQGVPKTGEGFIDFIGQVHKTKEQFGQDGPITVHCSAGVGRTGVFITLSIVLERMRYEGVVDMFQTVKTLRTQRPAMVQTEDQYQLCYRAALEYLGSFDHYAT

Regarding `CCCCCNC(=O)C(Cc1ccc(OS(=O)(=O)O)cc1)NC(=O)CCC(=O)O` (stereo not drawn), the inhibition in experiment [1] was 51%; in experiment [2], 5%; in experiment [3] it was 80%; in experiment [4], 6%.
On to `CCCCCNC(=O)C(Cc1ccc(OC(C(=O)O)C(=O)O)cc1)NC(=O)CCC(=O)O` (stereo not drawn), for which the inhibition in experiment [1] was 80%; in experiment [2], 2%; in experiment [3], 76%; in experiment [4] it was 8%.

For orientation: inhibition means the percentage by which the read-out fell short of the control. A lower inhibition goes with little suppression.
